Results published in patent publication US20050282225A1, “Quantitative binding assays using green fluorescent protein as a label” (priority 1998, published 2005).
Values belong to the compound of their own block, whether it stands above or below them. Where no end group is shown, it is not given here.

Legend:
Avidin = Avidin (Gallus gallus, UniProt P02701); settings: association (affinity) constant of the binding pair substance: Avidin; cited from earlier work
[1] = system: anti-octapeptide M2 monoclonal antibody; test: heterogeneous competitive immunoassay with immobilized M2 antibody and octapeptide-GFP conjugate, selectivity study; type: binding; settings: sequential incubation 25 min + 25 min, supernatant fluorescence (FIG. 10)
Experimental: A dose-response curve was constructed by incubating 200 μL of a solution of different concentrations of the octapeptide with 200 μL of a 140 μg/mL suspension of the immobilized antibody and 90 μL of 1.1×10^−8 M of octapeptide-GFP conjugate and 1.510 mL of PBS buffer.
The incubations were performed in a sequential manner. Initially, the octapeptide was incubated with the beads for 25 min. Then, the tubes were centrifuged at 2000×g for 15 min, the supernatant was removed, and the beads were washed three times with PBS. PBS (1.710 mL) and the octapeptide-GFP conjugate were added, and the mixture was incubated for an additional 25 min at room temperature. The beads were then centrifuged again as described, and 1.7 mL of the supernatant was transferred to plastic cuvettes for measurement of fluorescence emission at 508 nm. The selectivity of the assay was evaluated by constructing a dose-response curve for rev-octapeptide, an octapeptide with the amino acids of the octapeptide in the reverse order.

Chain of Avidin (P02701 25-152): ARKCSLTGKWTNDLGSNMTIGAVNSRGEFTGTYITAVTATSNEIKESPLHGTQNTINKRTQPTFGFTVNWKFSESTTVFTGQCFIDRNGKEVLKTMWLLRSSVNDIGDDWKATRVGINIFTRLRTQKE

Compound: C[C@@H]1NC(=O)N[C@@H]1CCCCCC(=O)O [Dethiobiotin]
Ka (Avidin): 10^13 M^−1

Compound: O=C(O)CCCCC1SCC2NC(=S)NC21 (stereo not drawn) [2-thiobiotin]
Ka (Avidin): 10^13 M^−1

Compound: COC(=O)CCCCC1SCC2NC(=O)N(C(=O)OC)C21 (stereo not drawn) [3′-N-methoxy-carbonylbiotin methyl ester]
Ka (Avidin): 10^9 M^−1

response in dose-response curve (displacement of octapeptide-GFP from M2 antibody) [1]: essentially no response
Compound: KDDDDKYD [rev-octapeptide, octapeptide with the amino acids of the octapeptide in the reverse order]

Compound: O=C(O)CCCC[C@@H]1SC[C@@H]2NC(=O)N[C@@H]21 [Biotin]
Ka (Avidin): 10^15 M^−1

Compound: N=C1N[C@H]2[C@H](CS[C@H]2CCCCC(=O)O)N1 [Iminobiotin]
Ka (Avidin): 10^11 M^−1
